Legend:
clinical = format: in vivo, human
Procedure: (§1) Therapeutic blood levels from 20 pg/ml to 1,000 pg/ml can be obtained from administration rates in the range of […]. […] Therapeutic blood levels can be achieved within approximately 2 hours, and peak blood concentrations are achieved at about 4-6 hours when the system is worn for 4-6 hours. […] The system application is easily adapted for shorter or longer duration treatments, but generally 6 hours is the nominal duration for treatment of most insomnias.

[1] = format: in vivo, human
Procedure: as §1

[2] = human, in vivo; cited from earlier work
insomniacs = conditions: oral; cited from earlier work
[3] = test system: desynchronized blind persons; conditions: oral; cited from earlier work
[4] = test system: intraocular pressure in glaucoma; conditions: cited from earlier work
breast cancer = conditions: cited from earlier work
[5] = cited from earlier work
mice = conditions: cited from earlier work
[6] = general statement; cited from earlier work
[7] = human, in vivo, topical or ocular

COc1ccc2[nH]cc(CCNC(C)=O)c2c1 [melatonin, N-acetyl-5-methoxytryptamine]
desired and achievable system flux through the skin from a limited area (clinical): 0,025-1.0 | Tmax (clinical; [7]): 4 to 6 h | half-life (clinical; [7]): 1 to 2 h | time to achieve therapeutic blood levels (clinical; in vivo): ≤ 2 h | skin flux through living human skin [1]: 0.05-10 mg/cm^2 /hr | metabolic clearance [2]: approximately 1 liter per minute | terminal plasma elimination half-life [2]: approximately 45 minutes | volume of distribution [2]: approximately 40 liters | mood, drive, alertness, and reaction time the next day (insomniacs): improved | time awake before sleep onset, sleep latency and number of awakenings (insomniacs): reduced the time awake before sleep onset and diminished sleep latency and number of awakenings | timing of sleep cycles [3]: Improved timing of sleep cycles | intraocular pressure [4]: lower intraocular pressure in glaucoma | inhibition of breast cancer (breast cancer): inhibit breast cancer | absorption through the gastrointestinal tract ([5]; in vivo, po): readily absorbed | inactivation by liver of absorbed melatonin on first-pass ([5]; oral): ≤ 99% | LD50 intraperitoneal (mice; intraperitoneal): 1375 mg/kg | LD50 intravenous (mice; intravenous): 180 mg/kg | toxicity [6]: relatively non-toxic

Reference: US5508039A (priority 1994, dated 1996)
